Test results reported in patent publication US20240124422A1, “MUTANT PI3K-ALPHA INHIBITORS AND THEIR USE AS PHARMACEUTICALS” (Prelude Therapeutics Incorporated, priority 2022, published 2024).

The compounds below were run on phosphorylation of AKT on Ser473 as a readout of the PI3K pathway in T-47D (heterozygous PIK3CA H1047R) cells (assay: PI3K pathway activation assay, pAKT Ser473 HTRF, T-47D cells). Details: Homo sapiens, T47D, 2 h, two hours of treatment.
Assay type: cell-based
Experimental: The inhibitory activity of compounds was evaluated by measuring phosphorylation of AKT on Ser473 as a readout of the PI3K pathway using HTRF (CisBio catalog number: 64AKSPE). These studies were conducted in the T-47D (heterozygous PIK3CA H1047R) and SKBR3 (PIK3CA WT) cell lines. Cells were maintained in a 37° C. incubator at 5% CO2 in the following media: T-47D: RPMI 1640, ATCC© Modification (Gibco, A10491-01) supplemented with 10% v/v FBS (Gibco, 26140-079), 1% penicillin streptomycin (Gibco, 15140-122), and 7.4 ug/mL insulin (MilliporeSigma, I9278); SKBR3: McCoy's 5a (Modified) Medium (Gibco, 16600-082) supplemented with 10% v/v FBS (Gibco, 26140-079). Cells were seeded in 384-well plates at a density of 4,000 cells/well. Compounds dissolved in DMSO were added using a digital dispense (D300E, Tecan) 10-point serial dilution. After two hours of treatment, cells were lysed for thirty minutes and then incubated with detection reagents per HTRF kit material and manufacturer's instructions. Fluorescence signal was measured with a multimode plate reader (Envision 2105, Perkin Elmer). Fluorescent signal was normalized to background and DMSO controls to obtain percent inhibition/activity for each compound.

IC50 [nM] | Compound
500 to 10000 | Cc1cc(C(C)Nc2cc(F)ncc2C(=O)O)c2nc(N3CC4CC4C3)n(C)c(=O)c2c1 (stereo not shown) [Example 125, 4-((1-(2-(3-Azabicyclo[3.1.0]hexan-3-yl)-3,6-dimethyl-4-oxo-3,4-dihydroquinazolin-8-yl)ethyl)amino)-6-fluoronicotinic acid]
500 to 10000 | CCC(Nc1ccccc1C(=O)O)c1cc(C)cc2c(=O)n(C)c(N3CC4CC4C3)nc12 (stereo not shown) [Example 97, 2-((1-(2-(3-azabicyclo[3.1.0]hexan-3-yl)-3,6-dimethyl-4-oxo-3,4-dihydro-quinazolin-8-yl)propyl)amino)benzoic acid]
< 500 | CC(Nc1ccccc1C(=O)O)c1cc(C(F)(F)F)cc2c(=O)n(C)c(N3Cc4ccccc4C3)nc12 (stereo not shown) [Example 15, 2-((1-(2-(isoindolin-2-yl)-3-methyl-4-oxo-6-(trifluoromethyl)-3,4-dihydroquinazolin-8-yl)ethyl)amino)benzoic acid]
500 to 10000 | Cc1cc(C(C)Nc2ccccc2C(=O)O)c2nc(N)n(C)c(=O)c2c1 (stereo not shown) [Example 26, 2-((1-(2-amino-3,6-dimethyl-4-oxo-3,4-dihydroquinazolin-8-yl)ethyl)amino) benzoic acid]
500 to 10000 | Cc1cc(C(C)Nc2ccccc2C(=O)O)c2nc(N3CC4CC4C3)n(C)c(=O)c2c1C#N (stereo not shown) [Example 14, 2-((1-(2-(3-azabicyclo[3.1.0]hexan-3-yl)-5-cyano-3,6-dimethyl-4-oxo-3,4-dihydroquinazolin-8-yl)ethyl)amino)benzoic acid]
500 to 10000 | Cc1cc(C(C)Nc2ccccc2C(O)C(F)(F)F)c2nc(N3Cc4ccccc4C3)n(C)c(=O)c2c1 (stereo not shown) [Example 12, 2-(isoindolin-2-yl)-3,6-dimethyl-8-(1-((2-(2,2,2-trifluoro-1-hydroxyethyl)phenyl)amino)ethyl)quinazolin-4(3H)-one]
< 500 | Cc1cc(C(C)Nc2ccccc2C(=O)O)c2nc(N3CC4(C3)CC(F)(F)C4)n(C)c(=O)c2c1 (stereo not shown) [Example 109, 2-[1-[2-(6,6-difluoro-2-azaspiro[3.3]heptan-2-yl)-3,6-dimethyl-4-oxoquinazolin-8-yl]ethylamino]benzoic acid]
< 500 | Cc1cc(C(C)Nc2ccccc2C(=O)O)c2nc(N3CCC(C)(C)CC3)n(C)c(=O)c2c1 (stereo not shown) [Example 17, 2-((1-(2-(4,4-dimethylpiperidin-1-yl)-3,6-dimethyl-4-oxo-3,4-dihydroquinazolin-8-yl)ethyl)amino)benzoic acid]
500 to 10000 | Cc1cc(C(C)Nc2c(F)cccc2C(=O)O)c2nc(N3Cc4ccccc4C3)n(C)c(=O)c2c1 (stereo not shown) [Example 45, 3-fluoro-2-((1-(2-(isoindolin-2-yl)-3,6-dimethyl-4-oxo-3,4-dihydroquinazolin-8-yl)ethyl)amino)benzoic acid]
500 to 10000 | CC(Nc1ccccc1C(=O)O)c1cc(C#N)cc2c(=O)n(C)c(N3Cc4ccccc4C3)nc12 (stereo not shown) [Example 50, 2-((1-(6-cyano-2-(isoindolin-2-yl)-3-methyl-4-oxo-3,4-dihydroquinazolin-8-yl)ethyl)amino)benzoic acid]
500 to 10000 | CONC(=O)c1ccccc1NC(C)c1cc(C)cc2c(=O)n(C)c(N3Cc4ccccc4C3)nc12 (stereo not shown) [Example 5, 2-((1-(2-(isoindolin-2-yl)-3,6-dimethyl-4-oxo-3,4-dihydroquinazolin-8-yl)ethyl)amino)-N-methoxybenzamide]
500 to 10000 | Cc1cc(C(C)Nc2ccccc2C(=O)O)c2nc(N3Cc4ccccc4C3)n([C@H]3C[C@H](C#N)C3)c(=O)c2c1 (stereo partly shown) [Example 75, 2-((1-(3-((1r,3r)-3-Cyanocyclobutyl)-2-(isoindolin-2-yl)-6-methyl-4-oxo-3,4-dihydroquinazolin-8-yl)ethyl)amino)benzoic acid]
500 to 10000 | CC(Nc1ccccc1C(=O)O)c1cccc2c(=O)n(C)c(N3Cc4ccccc4C3)nc12 (stereo not shown) [Example 72, 2-((1-(2-(Isoindolin-2-yl)-3-methyl-4-oxo-3,4-dihydroquinazolin-8-yl)ethyl)amino)benzoic acid]

Compound | IC50 [nM]
Cc1cc(C(C)Nc2ccccc2C(=O)O)c2nc(C3CCCN3S(=O)(=O)F)n(C)c(=O)c2c1 (stereo not shown) [Example 73, 2-[1-[2-(1-Fluorosulfonylpyrrolidin-2-yl)-3,6-dimethyl-4-oxoquinazolin-8-yl]ethylamino]benzoic acid] | 500 to 10000
Cc1cc(C(C)Nc2ccc(Cl)cc2C(=O)O)c2nc(N3Cc4ccccc4C3)n(C)c(=O)c2c1 (stereo not shown) [Example 33, 5-chloro-2-((1-(2-(isoindolin-2-yl)-3,6-dimethyl-4-oxo-3,4-dihydroquinazolin-8-yl)ethyl)amino)benzoic acid] | 500 to 10000

Same assay, conditions: two hours of treatment, read-out: T47D pAKT IC50

Compound | IC50 [nM]
Cc1cc(C(C)Nc2ccccc2C(=O)O)c2nc(N3C[C@@H]4C(C(=O)N(C)c5cccnc5)[C@@H]4C3)n(C)c(=O)c2c1 (stereo partly drawn) [Example 88, 2-((1-(3,6-Dimethyl-2-((1R,5S,6R)-6-(methyl(pyridin-3-yl)carbamoyl)-3-azabicyclo[3.1.0]hexan-3-yl)-4-oxo-3,4-dihydroquinazolin-8-yl)ethyl)amino)benzoic acid] | 500 to 10000
Cc1cc(C(C)Nc2ccccc2C(=O)O)c2nc(N3CCC(C)(C)CC3)n(C)c(=O)c2c1 (stereo not shown) [Example 3, 2-((1-(2-(4,4-dimethylpiperidin-1-yl)-3,6-dimethyl-4-oxo-3,4-dihydroquinazolin-8-yl)ethyl)amino)benzoic acid] | 500 to 10000
Cc1cc(C(C)Nc2ccccc2C(=O)O)c2nc(N3C[C@@H]4C(C(=O)N5CCC[C@@H]5C)[C@@H]4C3)n(C)c(=O)c2c1 (stereo partly drawn) [Example 85, 2-((1-(3,6-Dimethyl-2-((1R,5S,6R)-6-((S)-2-methylpyrrolidine-1-carbonyl)-3-azabicyclo[3.1.0]hexan-3-yl)-4-oxo-3,4-dihydroquinazolin-8-yl)ethyl)amino)benzoic acid] | < 500
Cc1cc(C(C)Nc2ccccc2C(=O)O)c2nc(N3C[C@@H]4[C@H](C3)[C@H]4C(=O)N3CCOC[C@@H]3C)n(C)c(=O)c2c1 (stereo partly drawn) [Example 86, 2-((1-(3,6-Dimethyl-2-((1R,5S,6R)-6-((S)-3-methylmorpholine-4-carbonyl)-3-azabicyclo[3.1.0]hexan-3-yl)-4-oxo-3,4-dihydroquinazolin-8-yl)ethyl)amino)benzoic acid] | < 500
Cc1cc(C(C)Nc2ccccc2C(=O)O)c2nc(N3C[C@@H]4C(NC(=O)OCC(F)(F)F)[C@@H]4C3)n(C)c(=O)c2c1 (stereo partly drawn) [Example 60, 2-((1-(3,6-dimethyl-4-oxo-2-((1R,5S,6s)-6-(((2,2,2-trifluoroethoxy)carbonyl)amino)-3-azabicyclo[3.1.0]hexan-3-yl)-3,4-dihydroquinazolin-8-yl)ethyl)amino)benzoic acid] | 500 to 10000
COCCN(C)C(=O)[C@H]1[C@@H]2CN(c3nc4c(C(C)Nc5ccccc5C(=O)O)cc(C)cc4c(=O)n3C)C[C@@H]21 (stereo partly drawn) [Example 87, 2-((1-(2-((1R,5S,6R)-6-((2-Methoxyethyl)(methyl)carbamoyl)-3-azabicyclo[3.1.0]hexan-3-yl)-3,6-dimethyl-4-oxo-3,4-dihydroquinazolin-8-yl)ethyl)amino)benzoic acid] | 500 to 10000
Cc1cc(C(C)Nc2ccccc2C(=O)O)c2nc(N3CCC(c4ccccc4)C3)n(C)c(=O)c2c1 (single isomer, unassigned) [Example 53, 2-[1-[3,6-dimethyl-4-oxo-2-(3-phenylpyrrolidin-1-yl)quinazolin-8-yl]ethylamino]benzoic acid] | 500 to 10000
